Measurements: PMC10108392, “Rimonabant-Based Compounds Bearing Hydrophobic Amino Acid Derivatives as Cannabinoid Receptor Subtype 1 Ligands” (ACS Medicinal Chemistry Letters, 2023)
Entries after “also recorded” stand apart in the source; their conditions may differ.

Columns and labels:
CB1R = target: T1, CB1R (Rattus norvegicus, UniProt P20272); test: [3H]WIN55,212-2 radioligand competition binding assay in rat brain membrane homogenate; conditions: read-out: Ki [3H]WIN55,212-2 binding, 5 nM [3H]WIN55,212-2, ± SEM, n.b. = no binding of ligands was observed
T1 construct: Crude membrane fractions were prepared from the brain; from tissue; host or cells: Wistar rat whole brain, crude membrane fraction
Experimental: Our novel chemical compounds were tested in vitro for their binding ability, efficacy, and potency on CB1R in rat brain membrane homogenate (Table 2 and SI, Figure S1). CB1Rs are the most abundant G-protein coupled receptors in the rodent and mammalian brain; therefore, this is an appropriate model to characterize our ligands in a more physiological system.
In Vitro Biological Assays
Preparation of Brain Membrane Homogenates
Wistar rats were locally bred and handled according to the EU Directive 2010/63/EU and to the Regulations on Animal Protection (40/2013. (II. 14.) Korm. r.) of Hungary. Crude membrane fractions were prepared from the brain. Brains were quickly removed from the euthanized rats and directly put in an ice-cold 50 mM Tris-HCl buffer (pH 7.4). The collected tissue was then homogenized in 30 volumes (v/w) of an ice-cold buffer with a Braun Teflon-glass homogenizer at the highest rpm. The homogenate was centrifuged at 20,000 × g for 25 min, and the resulting pellet was suspended in the same volume of a cold buffer followed by incubation at 37 °C for 30 min to remove endogenous ligands. Centrifugation was then repeated. The final pellets were taken up in five volumes of a 50 mM Tris-HCl (pH 7.4) buffer containing 0.32 M sucrose and stored at -80 °C. Prior to the experiment, aliquots were thawed and centrifuged at 20,000 ×g for 25 min and then they were resuspended in 50 mM Tris-HCl (pH 7.4), homogenized with a Douncer, followed by the determination of the protein concentration by the method of Bradford. The membrane suspensions were immediately used either in radioligand binding experiments or in [35S]GTPγS functional assays.
Radioligand Competition Binding Assay
Binding experiments were performed at 30 °C for 60 min in a 50 mM Tris-HCl binding buffer (pH 7.4) containing 2.5 mM of EGTA, 5 mM of MgCl2 and 0.5 mg/mL of fatty acid-free BSA in plastic tubes in a total assay volume of 1 mL that contained 0.3-0.5 mg/mL of a membrane protein. Competition binding […]
ligands. […] The incubation […]
was terminated by diluting the samples with an ice-cold wash buffer (50 mM of Tris-HCl, 2.5 mM of EGTA, 5 mM of MgCl2, 0.5% fatty acid free BSA, pH 7.4), followed by repeated washing and rapid filtration through Whatman GF/B glass fiber filters (Whatman Ltd., Maidstone, UK) pre-soaked with 0.1% polyethyleneimine (30 min before the filtration). Filtration was performed with a 24-well Brandel Cell Harvester (Gaithersburg, MD, USA). Filters were air-dried and immersed into Ultima Gold MV scintillation cocktail, and then radioactivity was measured with a TRI-CARB 2100TR liquid scintillation analyzer (Packard, Perkin Elmer, Waltham, MA, USA). […]
The results of the competition binding studies are reported as means ± S.E.M. of at least three independent experiments each performed in duplicate. In competition binding studies, the inhibitory constants (Ki) were calculated from the inflection points of the displacement curves using non-linear least-square curve fitting and the Cheng-Prusoff equation, Ki= […]/(1 + [ligand]/Kd). […]

mice [1] = test: Feeding test (food intake); assay type: in vivo, mouse; conditions: 10 mg/kg i.p., 1-h test, vs vehicle
Experimental: The tested compounds were injected i.p. (10 mg/kg), and after leaving for 30 min to allow the drug assimilation, mice were placed into individual cages with access to a predefined amount of their standard lab chow (2 g) for the 1-h test.
(§1) In Vivo Biological Assays
The international and national law and policies approved by Italian Ministry of Health were used to comply with all animal care and experimental procedures. Animal studies were advised in compliance with the ARRIVE guidelines and with the recommendations made by EU Directive 2010/63/EU for animal experiments and the Basel declaration including the 3Rs concept. CD-1 male mice (10-14 weeks of age, 25-30 g of weight) were bought from Charles River (Milan, Italy). Shortly after their arrival and for at least one week, they were kept in an animal care facility under controlled standard conditions of temperature (21 ± 1 °C), light (from 7:00 AM to 7:00 PM), and relative humidity (60 ± 10%). Access to drinking water and food was assured. All procedures were performed to decrease the number of animals used (n = 7 per group) and their distress.
The test was carried out as previously described. At 24 h before the start of a feeding test, all food was removed from the home cages of mice to be tested. The next day and at least 1 h before the feeding test began, the mice were transported to the laboratory. On test days, the animals were placed in the home cages for 30 min of drug assimilation, during which food was not available. Then compounds were intraperitoneally administered (10 mg/kg). Mice were transferred into transparent and individual plastic cages with thick white paper lining the bottom and access to a pre-measured amount of their regular lab chow (2 gr) for the 1-h test. At the end of 1 h, mice were repositioned into their home cage. The amount of food left in the trial cage, including crumbs, was measured, and the amount consumed was calculated.
Feeding trials normally happened on Tuesdays and Fridays between 12:00 and 14:00 h. […]

mice [2] = test: Hot plate test; assay type: in vivo, mouse; conditions: 10 μg/10 μL i.c.v., 15-120 min
Description: as §1
The international and national law and policies approved by Italian Ministry of Health were used to comply with all animal care and experimental procedures. Animal studies were advised in compliance with the ARRIVE guidelines and with the recommendations made by EU Directive 2010/63/EU for animal experiments and the Basel declaration including the 3Rs concept. CD-1 male mice (10-14 weeks of age, 25-30 g of weight) were bought from Charles River (Milan, Italy). […]
The test was carried out as previously described. […] Mice were transferred into transparent and individual plastic cages with thick white paper lining the bottom and access to a pre-measured amount of their regular lab chow (2 gr) for the 1-h test. […] The amount of food left in the trial cage, including crumbs, was measured, and the amount consumed was calculated. […]
Thermal nociception (hot-plate test) was assessed with a commercially available apparatus consisting of a metal plate 25x25 cm (Ugo Basile, Italy) heated to a constant temperature of 55.0 ± 0.1 °C, on which a plastic cylinder (20 cm diameter, 18 cm high) was placed. The time of latency (s) was recorded from the moment the animal was placed in the cylinder on the hot plate until it licked its paws or jumped; the cut-off time was 60 s. […] The time course of latency was then determined at 15, 30, 45, 60, 90 and 120 min after compound treatment. […]

mice [3] = test: Zymosan-induced paw edema; assay type: in vivo, mouse
Experimental: Drugs were administered s.c. in the dorsal surface of the right hind paw at the dose of 100 μg/20 μL, 15 min before zymosan. […]
testing. […] Then, the compounds were
Compounds were prepared by freshly diluting
Then, these solutions were injected for
The total time the animal spent licking or biting its paw was calculated.
Then, paw edema was calculated as formerly
Paw volume was quantified using a
Data Analysis and Statistics
Statistically significant differences between
Data were considered statistically
The data and statistical analyses respected the recommendations on experimental design and analysis.

T1 sequence (P20272 whole entry): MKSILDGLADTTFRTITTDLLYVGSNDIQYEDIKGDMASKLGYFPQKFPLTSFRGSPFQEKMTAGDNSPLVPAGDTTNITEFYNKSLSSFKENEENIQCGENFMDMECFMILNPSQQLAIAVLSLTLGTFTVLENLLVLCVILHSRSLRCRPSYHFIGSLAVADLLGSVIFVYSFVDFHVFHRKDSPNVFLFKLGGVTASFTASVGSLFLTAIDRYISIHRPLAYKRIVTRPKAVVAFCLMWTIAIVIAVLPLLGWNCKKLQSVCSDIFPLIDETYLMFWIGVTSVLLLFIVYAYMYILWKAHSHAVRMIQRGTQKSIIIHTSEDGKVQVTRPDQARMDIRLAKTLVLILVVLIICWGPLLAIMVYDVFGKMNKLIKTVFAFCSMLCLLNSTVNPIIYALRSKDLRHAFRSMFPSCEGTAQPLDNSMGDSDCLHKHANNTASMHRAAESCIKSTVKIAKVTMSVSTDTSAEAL

CNC(=O)[C@@H](NC(=O)c1nn(-c2ccc(Cl)cc2)c(-n2cccc2)c1C)C(C)(C)C [Compound 34, RS2691-tLeu-NHCH3]
Ki (CB1R): 6.9 ± 1.8 nM | food intake (mice [1]): increase food intake; also recorded: increased the food intake; also recorded: significant orexic effect | anti-nociceptive effect in hot plate test (%MPE) (mice [2]): strong and long-lasting anti-nociceptive effect; also recorded: more potent than that of the reference compound | anti-inflammatory effect on zymosan-induced paw volume increase (mice [3]; 100 μg/20 μL s.c., 15 min before zymosan): significantly reduce paw volume increase induced by zymosan from 1 to 4 h; also recorded: reduced the paw volume increase from 1 to 4 h | percentage of paw volume in zymosan-induced hindlimb edema (mice [3]; s.c. injection, for 24 h): below 75%
